≈ marks a conversion by molar mass, not a printed value.
Tests used:
[1] = Comparative solubility of complexed and non-complexed cardiac glycosides in deionised water; type: physicochemical; conditions: shaken about 8 hours, ambient temperature, HPLC
Text: The resultant mixture was filtered through a filter paper (Whatman No. 2) and then through a membrane filter (0.02 um, Millipore), the filtrate diluted 100 fold with deionised water and the solution thus obtained assayed for cardiac glycoside in a conventional manner using high performance liquid chromatography.

[2] = background statement; cited from earlier work
[3] = Comparative dissolution of complexed and non-complexed digoxin (B.P. rotating basket); type: physicochemical; conditions: B.P. 1980 rotating basket, deionised water (1 liter), 37° C., HPLC
Experimental: The dissolution rate of complexed (1:3 complex, Example 1) and non-complexed digoxin was determined in the British Pharmacopoeia rotating basket apparatus (B.P., 1980). The dissolution medium was deionised water (1 liter) at 37° C. A scoop containing sample (about […] of digoxin or about […] of digoxin/B-cyclodextrin complex) was added to the dissolution medium and allowed to settle to the base of the vessel. Samples (2 ml) were taken at intervals up to 60 minutes via a volumetric pippette and assayed by high performance liquid chromatography to determine cumulative percentage release of drug.

## C[C@H]1O[C@@H](O[C@H]2[C@@H](O)C[C@H](O[C@H]3[C@@H](O)C[C@H](O[C@H]4CC[C@@]5(C)[C@H](CC[C@@H]6[C@@H]5C[C@@H](O)[C@]5(C)[C@@H](C7=CC(=O)OC7)CC[C@]65O)C4)O[C@@H]3C)O[C@@H]2C)C[C@H](O)[C@@H]1O [Digoxin, digoxin]
[1]
  solubility at 8 h: 46 µg/mL (≈ 58.9 µM)
[1]; read-out: Solubility, Non-complexed (percent)
  solubility thermodynamic at 8 h: 46 µg/mL (≈ 58.9 µM)
[2]
  solubility of digoxin in water: ~0.005%
[3]
  T80 (time for 80% release): > 60 min

— patent US4555504A, “Inclusion complex of β-cyclodextrin and digoxin” (Burroughs Wellcome Co., priority 1981, dated 1985)
